From patent publication US20180021405A1, “NUTRITIONAL APPROACH TO THE CONTROL OF ANEMIA, DIABETES AND OTHER DISEASES OR CONDITIONS AND PREVENTION OF ASSOCIATED COMORBID STATES WITH THE USE OF ERGOTHIONEINE” (priority 2011, published 2018)

Columns and labels:
[1] = mushroom test meal, 8 g and 16 g mushroom powder; cited from earlier work
Drosophila melanogaster = assay: survival under Paraquat-induced oxidative stress; format: in vivo; settings: 10 mM Paraquat
Procedure: The effect of Agaricus Blazei without enrichment, with Vitamin D2 enrichment, pure Vitamin D2 and control (vehicle for the delivery) on the survival rate of Drosophila melanogaster under Paraquat-induced oxidative stress condition was tested. The study focused on the control of Paraquat induced oxidative stress/biologic death. Paraquat is a very potent oxidative stress inducing chemical and causes death in animals and plants by the toxicity of released free radicals. Paraquat (10 mM concentration) (Sigma Aldrich) was used to chemically induce oxidative stress. Paraquat is the trade name for N,N′-dimethyl-4,4′-bipyridinium dichloride, a widely used herbicide. Paraquat, a viologen, is quick-acting and non-selective, killing green plant tissue on contact. It is also toxic to humans when swallowed. This is the most standard chemical used in experimental induction of oxidative stress using the Drosophila model system. It catalyzes the formation of reactive oxygen species (ROS). Paraquat will undergo redox cycling in vivo, gets reduced by an electron donor such NADPH, before being oxidized by an electron receptor such as dioxygen to produce superoxide, a major ROS.
The following materials and methods were utilized. Vials containing 10 mM Paraquat (from Sigma Aldrich) in 5 ml of 1.2% Low melting point Agarose medium were prepared. A strip of half moist filter paper was inserted in the medium (with the wet end in). Yeast paste containing 1% concentration (w/w) of the various test materials (see above) mixed to homogeneity was prepared. Yeast paste without drug was used as control. Uniform aliquot (˜300 mg) of yeast paste with or without the test material) was applied to vials in such a way that yeast paste was on the glass surface and covered the dry end (top) of the filter paper strip. Freshly enclosed wild type isogenized Canton-S males and females were collected and starved on 1% agar medium for 5-6 hours. Four males and females were transferred to the vial containing 10 mM Paraquat in LMP agarose medium and yeast paste with +/− test material (8 flies per vial). 6 vials were used per experiment. Vials with flies were placed horizontally in a tray. The experiment was conducted at 25 degrees C. temperature. Flies were transferred once in 2 days and the number of flies surviving at each transfer was recorded.

[2] = test system: Alzheimer's disease mutant fruit fly (APP over-expression); assay: survival and life span in Alzheimer's disease (AD) model flies; set-up: species or system Drosophila; settings: in vivo
Source text: Type of Model (with specific Drosophila model of neurodegeneration). The targeted over/ectopic expression of APP in the brain using a UAS promoter driven APP transgene, induced by a specific GAL4 trans-driver in the brain of a Drosophila model system, was used for this Example.
The AD strain lives only for a few days after their eclosion (birth) as opposed to 65 days or more for wild type normal strains.
We determined the extension of life span in the mutant strain for each test compound. We used a specific GAL4 driver that induces the APP gene in the central brain area at high levels (see above) and results in a fully penetrant lethality within a 2-3 weeks period.

[3] = test system: vitamin D-deficient dialysis patients; settings: 81 patients; cited from earlier work
hemodialysis patients = settings: human, in vivo; cited from earlier work

Compound | bioavailability of ET from mushrooms [1] | time of ET peak in red blood cells after mushroom consumption [1] | effect on survival under Paraquat-induced oxidative stress (words) (Drosophila melanogaster) | survival rate of AD flies relative to control [2] | patients able to reach 25-D levels of 30 ng/mL or greater [3] | patients requiring less EPO with supplementation [3] | survivability under Paraquat-induced oxidative stress (Drosophila melanogaster; 1% w/w in yeast paste, over 10 days, 25 degrees C) | effect on survival under Paraquat-induced oxidative stress (words) (Drosophila melanogaster; listed as Vitamin D2) | effect on survival under Paraquat-induced oxidative stress (words) (Drosophila melanogaster; listed as Vitamin D2 in its pure form) | patients with a reduction in EPO dose after supplementation (hemodialysis patients)
C[N+](C)(C)[C@@H](Cc1c[nH]c(=S)[nH]1)C(=O)[O-] [ET, L-Ergothioneine] | bioavailable | 2 h | – | – | – | – | – | – | – | –
C=C1CC[C@H](O)C/C1=C/C=C1\CCC[C@]2(C)[C@@H]([C@H](C)CCCC(C)C)CC[C@@H]12 [Vitamin D3, cholecalciferol] | – | – | no beneficial effect | no such effect | – | – | – | – | – | –
C=C1CC[C@H](O)C/C1=C/C=C1\CCC[C@]2(C)[C@@H]([C@H](C)/C=C/[C@H](C)C(C)C)CC[C@@H]12 [pure Vitamin D2, Ergocalciferol] | – | – | no effect | no such effect | 44% | 57% | 13%+/−3% | no beneficial effect | deleterious effect | 64%
